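Test compounds were applied to cells in 96-well plates for 48 hours at 5 doses. GI50 = concentration required for 50% inhibition of growth. Definition used: TGI = concentration required for complete inhibition of growth.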
Experiments:
Experiment in all cases: DTP human tumour cell line panel, 48 h
BT-549 breast = tested on: BT-549 breast
CCRF-CEM leukemia = tested on: CCRF-CEM leukemia
EKVX NSCLC = tested on: EKVX NSCLC
LOX IMVI melanoma = tested on: LOX IMVI melanoma
M14 melanoma = tested on: M14 melanoma
MCF7 breast = tested on: MCF7 breast
PC-3 prostate = tested on: PC-3 prostate
RPMI-8226 leukemia = tested on: RPMI-8226 leukemia
SF-268 CNS = tested on: SF-268 CNS
SW-620 colon = tested on: SW-620 colon

| SMILES | GI50 (BT-549 breast) | TGI (BT-549 breast) | GI50 (CCRF-CEM leukemia) | TGI (CCRF-CEM leukemia) | GI50 (EKVX NSCLC) | TGI (EKVX NSCLC) | GI50 (LOX IMVI melanoma) | TGI (LOX IMVI melanoma) | GI50 (M14 melanoma) | TGI (M14 melanoma) | GI50 (MCF7 breast) | TGI (MCF7 breast) | GI50 (PC-3 prostate) | TGI (PC-3 prostate) | GI50 (RPMI-8226 leukemia) | TGI (RPMI-8226 leukemia) | GI50 (SF-268 CNS) | TGI (SF-268 CNS) | GI50 (SW-620 colon) | TGI (SW-620 colon) |
| --- | --- | --- | --- | --- | --- | --- | --- | --- | --- | --- | --- | --- | --- | --- | --- | --- | --- | --- | --- | --- |
| CN1CCN(Cc2ccc(NC(=O)c3cncc(C#Cc4cnc(N)cc4C#N)c3)cc2C(F)(F)F)CC1 | 4.25 µM | 16.8 µM | 3.4 µM | 42.7 µM | 3.4 µM | 14.7 µM | 0.601 µM | 1.99 µM | 0.623 µM | 3.86 µM | 3.64 µM | 16.2 µM | 3.5 µM | 19 µM | 3.83 µM | 21 µM | 3.7 µM | 19.2 µM | 2.92 µM | 11.4 µM |
| O=C(/C=C/c1ccc(C(F)(F)F)cc1)Nc1ccc(C=C2c3ccccc3C(=O)c3ccccc32)cc1 | 3.33 µM | 48 µM | 3.4 µM | > 100 µM | 3.37 µM | > 100 µM | 14.2 µM | > 100 µM | 3.41 µM | 18.8 µM | 4.54 µM | > 100 µM | 1.84 µM | > 100 µM | 1.15 µM | 85.9 µM | 14.3 µM | > 100 µM | 4.57 µM | > 100 µM |
| CC(C)c1nc(N(C)S(C)(=O)=O)nc(-c2ccc(F)cc2)c1/C=C/[C@@H](O)C[C@@H](O)CC(=O)O | > 100 µM | > 100 µM | > 100 µM | > 100 µM | > 100 µM | > 100 µM | 21.2 µM | > 100 µM | > 100 µM | > 100 µM | > 100 µM | > 100 µM | 41.7 µM | > 100 µM | > 100 µM | > 100 µM | 28.3 µM | > 100 µM | > 100 µM | > 100 µM |
| O=C1C2=C(C(=O)c3cnccc31)C1C=CC2CC1 (configuration not stated) | 5.86 µM | 10.3 µM | 0.66 µM | – | 1.92 µM | 4.13 µM | 0.773 µM | 2.19 µM | 1.94 µM | 3.41 µM | 1.81 µM | 3.74 µM | 2.15 µM | – | 2.28 µM | 5.59 µM | 1.9 µM | 3.84 µM | 1.85 µM | 3.44 µM |
| NS(=O)(=O)c1ccc(N2N=C3c4ccccc4CC3C2c2cccs2)cc1 (configuration not stated) | 19.3 µM | 51.7 µM | 31.8 µM | > 100 µM | 15.9 µM | 52.5 µM | 19.1 µM | 42.6 µM | 26 µM | > 100 µM | > 100 µM | > 100 µM | 22.1 µM | 59.5 µM | 32.3 µM | > 100 µM | > 100 µM | > 100 µM | 35.4 µM | > 100 µM |
| CN(C)CCNC(=O)c1ccc(-c2nc3ccc4[nH]ncc4c3c3c2C2CCC3C2)cc1 (configuration not stated) | 1.25 µM | 2.93 µM | 1.01 µM | 10.1 µM | 1.72 µM | 6.91 µM | 1.19 µM | 2.79 µM | 0.809 µM | 2.75 µM | 0.889 µM | 6.7 µM | 1.24 µM | 7.22 µM | 1.35 µM | 4.6 µM | 0.967 µM | 3.3 µM | 0.473 µM | 5.16 µM |
| COc1ccc(C(=O)c2cc3c(N)c(C(=O)Nc4ccccc4)sc3nc2C)cc1 | 38.6 µM | > 100 µM | 0.852 µM | > 100 µM | 5.42 µM | > 100 µM | 0.739 µM | > 100 µM | 0.779 µM | > 100 µM | 0.373 µM | > 100 µM | 2.77 µM | > 100 µM | 1.78 µM | > 100 µM | 3.65 µM | > 100 µM | 0.415 µM | > 100 µM |
| CN(C)c1ccc(/C=C2\N=C(c3ccccc3)N(c3cc(C(F)(F)F)ccc3Cl)C2=O)cc1 | > 100 µM | > 100 µM | > 100 µM | > 100 µM | > 100 µM | > 100 µM | > 100 µM | > 100 µM | > 100 µM | > 100 µM | 99.8 µM | > 100 µM | > 100 µM | > 100 µM | 35.7 µM | > 100 µM | > 100 µM | > 100 µM | > 100 µM | > 100 µM |
| COC(=O)C12CC(NC(=O)c3csc([C@@H](C[C@H](C(C)C)N(C)C(=O)[C@@H](NC(=O)[C@H]4CCCCN4C)C4CC4)OC(C)=O)n3)(C1)C2 | 0.00766 µM | 2.72 µM | 0.00613 µM | > 8.79 µM | 0.0696 µM | > 16.7 µM | 0.0144 µM | > 16.7 µM | 0.00988 µM | > 5.28 µM | 0.00813 µM | > 16.7 µM | 0.0366 µM | > 16.7 µM | 0.00674 µM | > 16.7 µM | 0.023 µM | > 16.7 µM | 0.0114 µM | > 16.7 µM |
| CC[C@@]1(OC(=O)CN)C(=O)OCc2c1cc1n(c2=O)Cc2c-1nc1cc3c(cc1c2CCl)OCO3 | 0.0918 µM | 2.54 µM | < 0.01 µM | > 100 µM | 1.84 µM | 26.5 µM | < 0.01 µM | 5.03 µM | 0.0102 µM | – | < 0.01 µM | 12.6 µM | 0.113 µM | 21.1 µM | 0.0374 µM | 0.597 µM | < 0.01 µM | 0.516 µM | < 0.0196 µM | 32.6 µM |
| COC(=O)c1cc2c(cc1Cl)SC1=NN(C)S(=O)N1S2(=O)=O (configuration not stated) | > 100 µM | > 100 µM | > 100 µM | > 100 µM | > 100 µM | > 100 µM | > 100 µM | > 100 µM | > 100 µM | > 100 µM | > 100 µM | > 100 µM | > 100 µM | > 100 µM | > 100 µM | > 100 µM | > 100 µM | > 100 µM | > 100 µM | > 100 µM |
| Oc1c(Cl)cc(Cl)c2ccc(Cn3cc(-c4cc(C(F)(F)F)cc(C(F)(F)F)c4)nn3)nc12 | 1.84 µM | 4.41 µM | 0.305 µM | 5.49 µM | 7.65 µM | 21 µM | 0.317 µM | 1.28 µM | 1.61 µM | 3.45 µM | 0.526 µM | 2.1 µM | 2.81 µM | 10.3 µM | 1.32 µM | 4.74 µM | 4.22 µM | 17.5 µM | 0.473 µM | 1.81 µM |
| CN1CCN(CCOc2ccc(-c3cnc4c(-c5cccc(F)c5)cnn4c3)cc2)CC1 | 3.51 µM | 14.1 µM | 2.11 µM | 5.23 µM | 1.72 µM | 3.45 µM | 1.84 µM | 3.35 µM | 1.95 µM | 4.34 µM | 1.51 µM | 3.13 µM | 1.92 µM | 4.39 µM | 1.85 µM | 5.25 µM | 1.99 µM | 4.79 µM | 1.81 µM | 3.4 µM |
| O=C(Nc1ccc(F)cc1F)c1cc(Cl)ccc1O | 0.62 µM | 3.31 µM | 3.04 µM | 18.1 µM | 1.94 µM | 8.38 µM | 1.73 µM | 12.6 µM | 0.446 µM | 4.18 µM | 2.05 µM | > 100 µM | 1.88 µM | 41.2 µM | 0.689 µM | 3.83 µM | 1.3 µM | 11.6 µM | 2.61 µM | 18.7 µM |
| O=S1(=O)N(Cc2ccccc2)[C@@H](Cc2ccccc2)[C@H](O)[C@H](O)[C@H](Cc2ccccc2)N1Cc1ccccc1 | 2.65 µM | 5.53 µM | 5.96 µM | > 20 µM | 3.43 µM | 9.86 µM | 3.28 µM | 7.09 µM | 3.04 µM | 6.07 µM | 4.77 µM | 13.6 µM | 3.48 µM | 10.4 µM | 4.49 µM | > 20 µM | 3.44 µM | 8.03 µM | 3.18 µM | 7.12 µM |
| c1cc(-c2nnc(SSc3ncnc4nc[nH]c34)o2)ccn1 | 9.47 µM | > 100 µM | 1.24 µM | > 100 µM | 24.4 µM | > 100 µM | 0.297 µM | 17.3 µM | 0.405 µM | > 100 µM | 0.419 µM | > 100 µM | 3.48 µM | > 100 µM | 1.32 µM | > 100 µM | 2.18 µM | > 100 µM | 3.38 µM | > 100 µM |
| CCCCCCCCOC(=O)c1c(C)[nH]c(/C=C2\N=C(c3ccc[nH]3)C=C2OC)c1C | 0.164 µM | 14.4 µM | < 0.0178 µM | > 27.4 µM | 0.12 µM | 9.15 µM | < 0.0134 µM | < 0.02 µM | 0.0351 µM | 2.01 µM | 0.0462 µM | 1.67 µM | 0.0467 µM | > 34.8 µM | 0.12 µM | 2.11 µM | 0.0498 µM | 7.2 µM | < 0.0181 µM | 1.56 µM |
| CCN1CCN(Cc2ccc(NC(=O)Nc3nc4ccc(Oc5ccnc(C(=O)NC)c5)cc4s3)cc2C(F)(F)F)CC1 | 2.32 µM | 4.25 µM | 0.443 µM | 2.47 µM | 2.01 µM | 6.67 µM | 1.71 µM | 3.17 µM | 1.75 µM | 3.38 µM | 1.23 µM | 2.89 µM | 1.87 µM | 3.58 µM | 2.1 µM | 5.34 µM | 2 µM | 4.12 µM | 2.07 µM | 3.87 µM |
